US11413278B2, “Compounds and methods for promoting stress resistance” (priority 2015, dated 2022)
Read-outs that look alike come from different tables or passages of the source.

Assays:
[1] = system: PC12 cells expressing poly(Q)103-Htt-EGFP; assay: Poly(Q) toxicity & viability analysis (cellular model of Huntington's disease); type: cell-based, rat; conditions: for M = Huntington's poly-Q toxicity attenuation: score; for K = Huntington's poly-Q toxicity attenuation: summary score
Experimental: Viability assays were performed as described before (Aiken et al., 2004). PC12 cells that stably express the inducible poly(Q)103-Htt-EGFP were grown in culture. […] Cell viability was analyzed 48 hrs later by measuring ATP content with CellTiter-Glo.
Toxic protein aggregation is a key feature of many age-related neurodegenerative diseases, including Alzheimer's and Huntington's disease (Caughey and Lansbury, 2003; Ross and Poirier, 2004). A number of animal models (Phillips et al., 2009) and cell models (Schlachetzki et al., 2013) have been established to study these diseases. For this purpose, PC12 rat pheochromocytoma cells display neuronal features and produce neurotransmitters and have been used extensively to study neuronal phenotypes, including synaptic transmission and neurological diseases. […] In this model, induced expression of poly(Q)103-Htt-EGFP could lead to the formation of aggregates and exert substantial toxicity in cells.

[2] = system: FOXO3; assay: qPCR analysis of FOXO3-regulated genes; type: cell-based, human; conditions: for fold induction at 10 µM: Homo sapiens; for K = Sestrin induction: score
Summary of the method: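 WI-38 cells treated with compound at 10 μM for 24 h, followed by Cells-to-Ct RT-qPCR of FOXO3 target genes normalised to B2M, PPIA and GAPDH. FOXO3 or NRF2 dependence tested by prior 10 nM siRNA knockdown (36 h transfection, compound added ~24 h after replating).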

[3] = system: WI-38 cells; conditions: for Percentage of propidium iodide-positive dead cells (no H2O2 stress treatment), at 10 uM: negative control 0.41% ± 0.23%
Experimental: WI-38 cells were seeded on 384-well plates for 24 hrs and then incubated with small molecules for 24 hrs. […] Images were collected on an INCell Analyzer 2000 (GE) and analyzed with the Developer software.

[4] = biological target: T1, human PARP1 (Homo sapiens, UniProt P09874); assay: PARP inhibitor assay (HT Fluorescent Homogeneous PARP Inhibition Assay Kit); type: biochemical; conditions: for L = PARP inhibition: score
T1 construct: purchased Trevigen
Summary of the method: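 Human PARP1 with NAD and activated DNA, compounds at 10 μM final, 30 min at room temperature in dark. Resazurin/diaphorase cycling mix then added for 1 hr in dark before stop buffer; fluorescent homogeneous kit read-out.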

[5] = WI-38 cells, 10 μM, 24 hrs, n=4, qPCR normalized by B2M, read-out: DDB1 Normalized fold change
[6] = WI-38 cells, 10 μM, 24 hrs, n=4, qPCR normalized by B2M, read-out: GADD45A Normalized fold change
[7] = WI-38 cells, 10 μM, 24 hrs, n=4, qPCR normalized by B2M, read-out: SESN1 Normalized fold change
[8] = qPCR, WI-38 cells, 10 μM, n=4, 24 hrs, normalized by B2M, read-out: CAT Normalized fold change
[9] = qPCR, WI-38 cells, 10 μM, n=4, 24 hrs, normalized by B2M, read-out: SOD2 Normalized fold change
[10] = qPCR, WI-38 cells, 10 μM, n=4, 24 hrs, normalized by B2M, read-out: TXNIP Normalized fold change
[11] = 24 h, Assay 10(m), at 10 uM, qPCR, read-out: Induction of FOXO3-regulated genes: SESN1 normalized fold-change
[12] = 10 μM, 24 hrs, WI-38 cells, qPCR, normalized to B2M, n = 4, read-out: SESN1 expression, normalized fold change (FOXO3-regulated gene)
[13] = fold change, qPCR, WI-38 cells, 10 μM, 24 hrs, read-out: Summary of effects on FOXO3-regulated genes: SESN1

T1 sequence (P09874 whole entry): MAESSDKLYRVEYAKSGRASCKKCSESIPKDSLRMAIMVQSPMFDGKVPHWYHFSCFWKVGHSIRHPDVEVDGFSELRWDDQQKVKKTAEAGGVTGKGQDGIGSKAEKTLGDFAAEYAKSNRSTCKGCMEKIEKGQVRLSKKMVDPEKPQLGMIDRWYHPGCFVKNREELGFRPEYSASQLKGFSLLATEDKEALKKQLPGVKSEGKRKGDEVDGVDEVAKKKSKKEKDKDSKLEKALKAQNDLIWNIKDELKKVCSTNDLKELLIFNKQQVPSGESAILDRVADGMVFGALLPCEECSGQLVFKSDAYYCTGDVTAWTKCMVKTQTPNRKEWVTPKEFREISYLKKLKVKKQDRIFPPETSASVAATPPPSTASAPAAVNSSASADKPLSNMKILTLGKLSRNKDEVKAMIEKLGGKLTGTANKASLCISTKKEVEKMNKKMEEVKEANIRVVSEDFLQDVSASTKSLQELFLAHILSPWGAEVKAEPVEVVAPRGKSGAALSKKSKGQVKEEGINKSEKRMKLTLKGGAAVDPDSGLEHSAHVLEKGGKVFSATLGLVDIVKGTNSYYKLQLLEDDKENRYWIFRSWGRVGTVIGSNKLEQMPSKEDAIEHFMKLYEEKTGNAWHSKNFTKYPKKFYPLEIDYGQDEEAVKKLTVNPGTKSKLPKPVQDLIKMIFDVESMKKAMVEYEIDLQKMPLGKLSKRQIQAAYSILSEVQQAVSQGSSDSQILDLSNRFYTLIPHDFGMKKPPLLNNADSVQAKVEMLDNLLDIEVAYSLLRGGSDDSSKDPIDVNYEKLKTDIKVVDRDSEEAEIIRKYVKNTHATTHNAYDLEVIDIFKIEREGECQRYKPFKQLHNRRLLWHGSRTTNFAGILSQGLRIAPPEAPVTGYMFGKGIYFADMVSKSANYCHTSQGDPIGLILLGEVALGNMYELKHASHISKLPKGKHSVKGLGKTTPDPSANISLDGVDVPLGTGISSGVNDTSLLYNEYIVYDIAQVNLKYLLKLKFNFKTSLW

| SMILES | M = Huntington's poly-Q toxicity attenuation [1] | K = Huntington's poly-Q toxicity attenuation [1] | E = Potential FOXO3 Activation ([2]; 2-point score) | fold induction at 10 µM [2, 5] | fold induction at 10 µM [2, 6] | fold induction at 10 µM [2, 7] | fold induction at 10 µM [2, 8] | fold induction at 10 µM [2, 9] | fold induction at 10 µM [2, 10] | K = Sestrin induction [2] | E = Potential FOXO3 Activation ([2]; summary score) | Percentage of propidium iodide-positive dead cells (no H2O2 stress treatment), at 10 uM [3] | L = PARP inhibition [4] | fold induction at 10 µM [2, 11] | fold induction at 10 µM [2, 12] | fold induction at 10 µM [2, 13] | also measured |
| --- | --- | --- | --- | --- | --- | --- | --- | --- | --- | --- | --- | --- | --- | --- | --- | --- | --- |
| O=C(Nc1nc(C23CC4CC(CC(C4)C2)C3)cs1)C(c1ccccc1)c1ccccc1 [O10] | 0 | 0 | 0 | 0.906 | 1.19 | 0.983 | 0.892 | 0.912 | 0.731 | 0 | 0 | 0.54% ± 0.16%, | 0 |  |  |  |  |
| COc1ccc(/C=C2\SC(=N)N(c3nccs3)C2=O)cc1 [O21] | 0 | 0 | 0 | 1.45 | 2.06 | 1.88 | 1.3 | 1.12 | 0.9 | 1 | 0 | 1.09% ± 0.39%, | 0 | 1.88 | 1.88 | 1.88 | fold induction at 10 µM ([2]; WI-38, 24 h, read-out: SESN1 expression): > 1.5; PI cell-death imaging without H2O2 (indicating potential toxicity) ([3]; Assay 8(k), without H2O2, at 10 uM): YES; Percentage of propidium iodide-positive (dead) cells under normal conditions (qualitative) ([3]; WI-38, no H2O2): increased the percentage; PI-positive dead cells under normal conditions ([3]; WI-38, no H2O2, control 0.4±0.2%): 1.1±0.4% |
| N=C1S/C(=C\c2cn(-c3ccccc3)nc2-c2cccs2)C(=O)N1c1nccs1 [Gr-6C] | 0 | 0 | 0 | 1.22 | 2.17 | 1.42 | 1.13 | 1.01 | 0.568 | 0 | 0 | 0.66% ± 0.26%, | 0 | 1.42 | 1.42 | 1.42 | fold induction at 10 µM ([2]; 24 h, Assay 10(m), at 10 uM, qPCR, read-out: Induction of FOXO3-regulated genes: TXNIP normalized fold-change): 0.57; fold induction at 10 µM ([2]; 10 μM, 24 hrs, WI-38 cells, qPCR, normalized to B2M, n = 4, read-out: GADD45A expression, normalized fold change (FOXO3-regulated gene)): 2.17; fold induction at 10 µM ([2]; 10 μM, 24 hrs, WI-38 cells, qPCR, normalized to B2M, n = 4, read-out: TXNIP expression, normalized fold change (FOXO3-regulated gene)): 0.57; fold induction at 10 µM ([2]; fold change, qPCR, WI-38 cells, 10 μM, 24 hrs, read-out: Summary of effects on FOXO3-regulated genes: GADD45A): 2.17; fold induction at 10 µM ([2]; fold change, qPCR, WI-38 cells, 10 μM, 24 hrs, read-out: Summary of effects on FOXO3-regulated genes: TXNIP): 0.57 |
| O=C1NCCCc2cc(Cl)sc21 [O1] | 0 | 0 | 0 | 1.2 | 0.853 | 1.18 | 1.25 | 1.11 | 1.11 | 0 | 0 | 0.30% ± 0.13%, | 1 |  |  |  | Inhibition of PARP1 ([4]; 10 μM, in vitro): inhibitors of PARP1 |
